Experiment: xn = mol fraction of the nth substance listed
Details: 101 kPa

CC(=O)[O-].CCCCC[n+]1ccccc1 + O
electrical conductivity [S/m]
Details	x1 = 0.9143	x1 = 0.9163	x1 = 0.9314	x1 = 0.948	x1 = 0.9673	x2 = 0.0023
293.15 K	0.0061	–	–	0.0049	0.0043	0.0034
298.15 K	0.0106	–	0.0094	–	0.007	0.0053
303.15 K	0.0175	0.0173	–	0.0128	0.0112	0.0081
308.15 K	0.024	–	–	0.0185	0.0162	0.0121
313.15 K	0.036	–	0.0335	0.029	0.0245	0.0179
318.15 K	0.051	–	0.0438	–	–	0.0266
323.15 K	0.071	–	0.0623	0.0532	0.0459	–
328.15 K	0.093	0.092	–	0.0715	0.061	0.045
333.15 K	–	0.125	0.111	0.095	0.0805	0.0572
338.15 K	–	0.171	0.151	–	0.109	0.0766
343.15 K	0.226	0.222	–	0.17	0.138	0.0955
